Assay results: a melting point compilation (Tetko et al.; mined from patent text by program, amines drawn as free bases though some values may be those of a salt)

Compared with `CCCC(CCC)n1c(CC)nc2c1C(=O)N(C)C(C)N2c1ccc(Cl)cc1Cl` (centres undefined), `O=C(c1cccc2nc3n(c12)CCCN3c1ccc(Cl)cc1Cl)N1CC(O)C1` is higher in melting point: 144 to 146 °C for the first, 257 to 258 °C for the second.

First: NC(=O)c1ccc(-c2ccc3nnn(Cc4ccc5ncccc5c4)c3n2)cc1C(F)(F)F
Second: CC(=O)NNc1nc(C(F)(F)F)nc(-c2ccc(C)cc2)c1-c1ccccc1
The melting point of the first is higher: 230 to 232 °C for the first, 147 to 152 °C for the second.

First: CCOC(=O)CCc1cc(O)ccc1-c1ccc(-c2cccc(C)c2)c(CO)c1
Second: Cc1ccc(-c2csc(-c3cccc(C(=O)O)c3)n2)cc1C
The melting point of the first is lower: 57 to 59 °C for the first, 235 to 236 °C for the second.

First: O=c1nc(-c2ccsc2)c2c(=O)nc(-c3ccsc3)c1=2
Second: COc1cc2nc(N)nc(-c3ccccc3I)c2cc1OC
The melting point of the first is higher: over 400 °C for the first, 225 to 230 °C for the second.

First: O=C(c1ccc(Cl)c(Cl)c1)N1CCCC(c2cc(Br)cc(Br)c2)=N1
Second: Clc1ccc2c(c1)C(c1ccccc1Cl)=CCc1nnc(Br)n1-2
The melting point of the first is lower: 179 to 182 °C for the first, 234 °C for the second.

First: O=Cc1csc(NCc2ccccc2)n1
Second: CCOC(=O)C(C(=O)NCc1ccccc1)=C1SC=CS1
The melting point of the first is higher: 162 to 165 °C for the first, 79 to 81 °C for the second.

First: CC(C)C(=O)O[C@H]1[C@H](C)OC(=O)[C@@H](NC(=O)OC(C)(C)C)COC(=O)[C@@H]1CC(=O)O
Second: COCCOC[C@H](CC1(C(=O)O)CCCC1)C(=O)OC(C)(C)C
The melting point of the first is higher: 164 to 167 °C for the first, 86 to 87 °C for the second.

Compared with `OC1Cc2cccc(-c3ccccc3)c2C1` (single isomer, unassigned; (+)), `O=C(O)c1ccc(-c2ccccc2O)cc1` is higher in melting point: 100 to 101 °C for the first, 176 to 178 °C for the second.

Compared with `COC(=O)c1ccc(C(=O)Nc2ccc(C)c(Nc3nc(-c4cccnc4)cs3)c2)cc1`, `CCC(C)(C)c1ccc(Oc2ccncc2NC(=O)c2ccccc2)c(C(C)(C)CC)c1` is higher in melting point: 195 °C for the first, 253 °C for the second.

First: CN1C(=O)CC[C@]2(C)c3ccc(-c4ccc([N+](=O)[O-])cc4C(F)(F)F)cc3CC[C@@H]12
Second: NS(=O)(=O)c1ccc(C2=C(c3ccc(F)c(F)c3)CCC2)cc1
The melting point of the first is lower: 128 to 130 °C for the first, 147 to 148 °C for the second.

First: CCn1c2ccc(C)cc2c(=O)c2c1cnn2C
Second: CCOC(=O)c1sc(Oc2ccc(C(C)=O)c(O)c2)c2c1CCc1cnn(C)c1-2
The melting point of the first is higher: over 300 °C for the first, 131 to 132 °C for the second.

First: COc1ccc(Cl)cc1NC(=O)Nc1ccc(N2CCN(C(=O)OC(C)(C)C)CC2)cc1
Second: COc1ccc(CN2CCC(C(=O)O)(S(=O)(=O)c3ccc(OC)cc3)CC2)cc1
The melting point of the first is higher: 205 °C for the first, 175 °C for the second.

First: CCOC(=O)c1cn(-c2cc(N)c(F)cc2F)c2cc(F)c(F)cc2c1=O
Second: O=C(Nc1ccc(-n2nc(C(F)(F)F)cc2C2CC2)c(F)c1)c1ccncc1F
The melting point of the first is higher: 198 to 205 °C for the first, 161 to 165 °C for the second.

Compared with `CCOc1cc(C(CS(C)(=O)=O)N2C(=O)c3cccc(N(S(C)(=O)=O)S(C)(=O)=O)c3C2=O)ccc1OC` (centres undefined), `Cc1ccc(N(C)S(=O)(=O)c2cccs2)c2[nH]c(C(=O)O)cc12` is lower in melting point: 277 to 279 °C for the first, 223 to 225 °C for the second.

Compared with `N#CC(C#N)=C1C(=O)Nc2ccc(S(=O)(=O)N3CCCC3COc3ccccc3)cc21` (centres undefined), `O=c1c(Cl)c(S(=O)(=O)Cc2ccccc2)cnn1-c1ccccc1` is lower in melting point: 246 to 248 °C for the first, 154 to 156 °C for the second.

Compared with `CC=C1CCC2C3CCC4CC(O)C(OCC)CC4(C)C3C(=NO)CC12C` (centres undefined), `CC12CCC(=O)C=C1CCC1C2=CCC2(C)C(=C(Cl)C(Cl)S(=O)c3ccccc3)CCC12` (centres undefined) is lower in melting point: 176 to 193 °C for the first, 133 to 134 °C for the second.

First: CC(C)Oc1ccc(-c2nc3n(c2-c2ccncc2)CCC3)cc1
Second: CCC(=O)N1N=C(c2ccc(N)cc2)c2cc(Br)ccc2CC1C (centres undefined)
The melting point of the first is higher: 148 to 150 °C for the first, 99 to 102 °C for the second.

First: CN1CCOc2ccc(S(=O)(=O)Nc3ccc(CCl)cc3I)cc21
Second: CN1CCOc2ccc(S(=O)(=O)n3c(Cc4ccc(C(=O)O)s4)cc4cc(C(F)(F)F)ccc43)cc21
The melting point of the first is lower: 109 to 110 °C for the first, 120 to 144 °C for the second.

`CNc1nc(C2C(=O)Nc3ccccc32)c2cn(C3CCCC3)nc2n1` (centres undefined) and `CNc1nc(NS(=O)(=O)c2ccc(N)cc2)cc(N2CCCC2)n1` cannot be ordered by melting point: over 300 °C for the first, over 300 °C for the second.

Compared with `O=C(O)c1cc(-n2cccc2)cc(C(F)(F)F)c1`, `O=C(O)Cc1ccc(Oc2ccc(C(F)(F)F)cn2)c(Cl)c1` is lower in melting point: 191 to 192 °C for the first, 138 to 139 °C for the second.

First: C=C(C)C(=O)CC/C(C)=C/CC/C(C)=C/C(N)=O
Second: CC(=O)SCC(=Cc1ccc(C(F)(F)F)cc1)C(=O)NCCC(=O)OCc1ccccc1
The melting point of the first is lower: 42 to 44 °C for the first, 79 °C for the second.

First: Cc1c(C(=O)O)sc2cc(Cc3cccnc3)ccc12
Second: O=C(O)c1cccc(-c2nc(-c3ccc(F)cc3F)cs2)c1
The melting point of the first is lower: 250 to 252 °C for the first, 255 to 256 °C for the second.

Compared with `CSC1=NCCc2nc(C)nn21`, `Cc1cc(C#Cc2ccc(F)cc2)nc(Oc2cc(C(F)(F)F)nn2C)c1` is higher in melting point: 75.5 to 76.5 °C for the first, 86 to 87 °C for the second.

Compared with `O=Cc1ccc2ccnc(NC(=O)c3ccccc3)c2c1`, `Cc1oc(-c2ccccc2)nc1CCOc1ccc(C=O)c2ccccc12` is lower in melting point: 138 to 139 °C for the first, 130 to 133 °C for the second.

Compared with `CN(c1cccc2cc(C3=NCC4(CCN(CC(C)(C)O)CC4)S3)[nH]c12)S(=O)(=O)c1cccs1`, `NS(=O)(=O)c1cc(CCNC(=O)/C=C/c2cccs2)ccc1-c1ccco1` is lower in melting point: 191 °C for the first, 165 to 166 °C for the second.

Compared with `CC(C)c1cc(-c2ccc(F)c3ccccc23)nc(NCCNS(C)(=O)=O)n1`, `COC(=O)C1=C(C)NC(C)=C(c2ccccc2)C1c1cccc(Cl)c1` (centres undefined) is higher in melting point: 85 to 91 °C for the first, 191 °C for the second.

Compared with `CCOc1cc(OCCCCc2cc(-c3ccc(C(F)(F)F)cc3)no2)ccc1CCC(=O)O`, `CCOC(=O)c1ccc(OCCCCCCc2cc(C)no2)cc1` is lower in melting point: 105 to 106 °C for the first, 51 °C for the second.

First: CC(C)(C)OC(=O)Nc1ccccc1O
Second: COC(=O)C1Cc2ccccc2NC1=O (centres undefined)
The melting point of the first is lower: 145 °C for the first, 165 to 168 °C for the second.

First: COc1cccc(C(=O)NC2(C(=O)N(C)OC)CC2)c1C
Second: COc1ccc(C(=O)C(Br)CC2CCCCC2)c(OC)c1 (centres undefined)
The melting point of the first is higher: 173 to 175 °C for the first, 83 to 89 °C for the second.

First: Cn1c(-c2ccccc2)c(C2CCC(C(=O)O)(C(=O)O)CC2)c2ccccc21
Second: C[C@@]1(O)CCCC[C@H]1n1nc(-c2c(-c3ccccc3)nn3ccccc23)ccc1=O (relative stereo)
The melting point of the first is higher: 230 °C for the first, 197 to 198 °C for the second.

First: CCCCCCCCCCCCNc1cc(C)c(C)cc1N
Second: CCCCNc1cc(Cl)c(S(C)(=O)=O)cc1C(=O)O
The melting point of the first is lower: 53 to 54 °C for the first, 187 to 189 °C for the second.

First: CCCCOCCOc1ccc(-c2ccc(N(C)Cc3cnn(C)c3)c(C=C(C)C(=O)O)c2)cc1
Second: Cc1oc(-c2ccccc2)nc1CCOc1ccc(CC(C(=O)O)C(=O)O)cc1
The melting point of the first is lower: 140 °C for the first, 173 to 175 °C for the second.

First: COC(=O)c1nc(C(=O)c2ccc(N)c(OC)c2)n2ccccc12
Second: COC(=O)C(Oc1cc(OCc2ccsc2)cc(F)c1C#N)c1ccccc1Cl (racemic)
The melting point of the first is lower: 63 °C for the first, 143 to 144 °C for the second.

Compared with `O=C1NC(=O)c2c1c(-c1ccccc1Cl)cc1c2ccn1CCCO`, `O=C1NC(=S)C(c2cccc(Cl)c2)C1c1ccccc1` (centres undefined) is lower in melting point: 225 to 227 °C for the first, 104 to 106 °C for the second.

First: N#Cc1c(NC(=O)C2CCCCC2)sc(-c2ccccc2)c1[N+](=O)[O-]
Second: O=C(CCCC1CCCCC1)N1C(=O)OC[C@@H]1Cc1ccccc1
The melting point of the first is higher: 213 to 214 °C for the first, 69 to 70 °C for the second.

Compared with `O=C(Nc1cccc(Cl)c1)C1=Cc2ccccc2S1=O` (centres undefined), `CON(C)C(=S)Nc1ccc(OCCc2ccccc2)c(Cl)c1` is lower in melting point: 257 to 258 °C for the first, 116 to 117 °C for the second.

Compared with `COc1cc(O)c2c(=O)c(OC(C)C)c(-c3ccc(O)c(OC)c3)oc2c1`, `COc1cc(Cl)c2c(=O)c(C(C)C)coc2c1` is higher in melting point: 169 to 171 °C for the first, 177 to 179 °C for the second.

First: CC(C)CC(NC(=O)C(Cc1c[nH]cn1)NC(=O)C(Cc1cccc2ccccc12)Cc1cccc2ccccc12)C(O)C(=O)OC(C)C (centres undefined)
Second: CCCCc1nc(C(C)(C)O)c(C#N)n1C(c1ccccc1)(c1ccccc1)c1ccccc1
The melting point of the first is lower: 93 to 98 °C for the first, 151 to 152 °C for the second.

First: CCCCNc1c(C(=O)OCC)cnc2cn[nH]c12
Second: CCCCCCCNC(=O)Nc1ccccc1C(=O)Nc1cccnc1
The melting point of the first is lower: 86 to 95 °C for the first, 144 °C for the second.

Compared with `CCOCc1nc2c(N)nc3c(c2n1CC1(O)CCCC1)NCCC3`, `Cc1nc2cc3c(cc2o1)C1(CO3)C(=O)N(CC2CCCO2)c2ccccc21` (centres undefined) is lower in melting point: 207 to 208 °C for the first, 188 to 190 °C for the second.

First: CC(C)Sc1nc(-c2ccc(Cl)cc2)c(CCC(=O)O)o1
Second: OCC1c2cc(Cl)ccc2Oc2ccc(Cl)cc21
The melting point of the first is lower: 132 to 133 °C for the first, 134 to 136 °C for the second.

First: C1=C(c2c[nH]c3ccccc23)CCN(CC2COc3ccc4c(c3O2)CCO4)C1 (centres undefined)
Second: COC1=C(OC)C(=O)C2=C(CCC(CCn3ccccc3=O)CC2)C1=O
The melting point of the first is higher: 207 to 209 °C for the first, 85 to 89 °C for the second.

First: Cn1c2c(ccc1=O)C(=O)CCC2
Second: CON=C1CCCc2cc(C(=O)OC)c(C)nc21
The melting point of the first is higher: 174 to 176 °C for the first, 124 to 125 °C for the second.

Compared with `COCC1OC(n2cnc3c(NCc4cccc(I)c4)nc(Cl)nc32)C(O)C1O` (centres undefined), `Cn1c(-c2ccc(Br)cc2)cnc1[C@H](Cc1ccccn1)N(C=O)c1cc2cc(Cl)ccc2o1` is higher in melting point: 84 to 86 °C for the first, 185 to 188 °C for the second.

Compared with `Cc1nc(Cn2cnc3c2c(=O)[nH]c(=O)n3C)no1`, `C=CCn1c(=O)[nH]c(=O)n(-c2ccccc2)c1=O` is lower in melting point: 262 to 264 °C for the first, 63 to 65 °C for the second.

Compared with `COC(=O)C(NC(=O)Nc1ccc(C=NO)cc1)C(=O)OC`, `COC(=O)C1CCCN1C(=O)Cc1c(C)cc(C)cc1C` (centres undefined) is lower in melting point: 162 °C for the first, 74 °C for the second.

First: c1ccc(N(Cc2ccc(OCOc3ccc(CN(c4ccccc4)c4ccccc4)cc3)cc2)c2ccccc2)cc1
Second: COc1ccc(-c2ccc(C3C(CCC(O)c4ccc(F)cc4)C(=O)N3c3ccc(F)cc3)cc2)cc1 (centres undefined)
The melting point of the first is lower: 99 to 100 °C for the first, 103 °C for the second.

Compared with `O=c1[nH]c2cc(C(F)(F)F)c([N+](=O)[O-])c(Cl)c2[nH]c1=O`, `O=C(O)c1cccc([N+](=O)[O-])c1SCc1ccccc1` is lower in melting point: 343 to 347 °C for the first, 152 to 153 °C for the second.

Compared with `CCCCN(C1CS(=O)(=O)c2ccccc21)S(C)(=O)=O` (centres undefined), `Nn1cnc2ccccc2c1=O` is higher in melting point: 171 to 173 °C for the first, 209 to 210 °C for the second.

Work on `Cc1cc(=S)c(OCC(=O)O)co1` yielded a melting point of 120 to 125 °C.
